“And” between values parts separate entries of the source, which are not always exact repeats. Equal entries are not always repeated. Toxic doses and inconclusive results are not listed. The calls were made as follows: active = survival T/C of 150% or more; inactive = T/C below 125% in these data.
Test system: BDF1 mice, P388 leukemia ip, median survival T/C
Assay: NCI In Vivo Anticancer Drug Screen. Data for tumor model P388 Leukemia (intraperitoneal) in B6D2F1 (BDF1) mice
Conditions: endpoint: median survival time, higher = longer survival
Outline: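 Reported as T/C, where T is the survival measurement in dosed animals and C the same measurement in vehicle controls.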

[1] = dose: 50.0 mg/kg/injection, schedule: Q01DX009 (ip), vehicle: saline with Tween-80
[2] = dose: 100.0 mg/kg/injection, schedule: Q01DX009 (ip), vehicle: saline with Tween-80
[3] = dose: 200.0 mg/kg/injection, schedule: Q01DX009 (ip), vehicle: saline with Tween-80
[4] = dose: 50.0 mg/kg/injection, schedule: Q01DX009 (ip), vehicle: saline
[5] = dose: 100.0 mg/kg/injection, schedule: Q01DX009 (ip), vehicle: saline
[6] = dose: 100.0 mg/kg/injection, schedule: Q04DX003 (ip), vehicle: saline
[7] = dose: 200.0 mg/kg/injection, schedule: Q01DX009 (ip), vehicle: saline
[8] = dose: 200.0 mg/kg/injection, schedule: Q04DX003 (ip), vehicle: saline
[9] = dose: 400.0 mg/kg/injection, schedule: Q01DX009 (ip), vehicle: saline
[10] = dose: 400.0 mg/kg/injection, schedule: Q04DX003 (ip), vehicle: saline
[11] = dose: 25.0 mg/kg/injection, schedule: Q01DX009 (ip), vehicle: saline with Tween-80

Measured: T/C

COc1ccc(Nc2c3ccccc3nc3ccccc23)cc1
active: [1] 208 % of control

Cc1ccc(S(=O)(=O)NC(=O)NNC(=O)C(F)(F)F)cc1
inactive: [1] 114 % of control | [2] 96 % of control | [3] 109 % of control

CCOC(=O)c1cnc2c(OC)cccc2c1Cl
inactive: dose: 4.0 mg/kg/injection, schedule: Q01DX009 (ip), vehicle: saline 86 % of control | dose: 8.0 mg/kg/injection, schedule: Q01DX009 (ip), vehicle: saline 91 % of control | dose: 16.0 mg/kg/injection, schedule: Q01DX009 (ip), vehicle: saline 106 % of control | dose: 25.0 mg/kg/injection, schedule: Q01DX009 (ip), vehicle: saline 120 % of control | [4] 113 % of control | dose: 50.0 mg/kg/injection, schedule: Q04DX003 (ip), vehicle: saline 96 % of control | [5] 111 % of control | [6] 96 % of control | [7] 113 % of control | [8] 97 % of control | [9] 113 % of control | [10] 90 % of control

CC(C)(C(Cl)Cl)S(=O)(=O)O (tested in a mixture with another compound)
inactive: dose: 75.0 mg/kg/injection, schedule: Q01DX009 (ip), vehicle: saline with Tween-80 100 % of control | dose: 75.0 mg/kg/injection, schedule: Q04DX003 (ip), vehicle: saline with Tween-80 110 % of control | dose: 150.0 mg/kg/injection, schedule: Q01DX009 (ip), vehicle: saline with Tween-80 100 % of control | dose: 150.0 mg/kg/injection, schedule: Q04DX003 (ip), vehicle: saline with Tween-80 100 % of control | dose: 300.0 mg/kg/injection, schedule: Q01DX009 (ip), vehicle: saline with Tween-80 109 % of control | dose: 300.0 mg/kg/injection, schedule: Q04DX003 (ip), vehicle: saline with Tween-80 110 % of control

O=C(Cn1cc(F)c(=O)[nH]c1=O)c1ccco1
inactive: [5] 100 % of control | [6] 111 % of control | [7] 95 % of control | [8] 105 % of control and 122 % of control | [9] 100 % of control | [10] 86 % of control | dose: 600.0 mg/kg/injection, schedule: Q04DX003 (ip), vehicle: saline 95 % of control

O=C1C=C(NCc2ccccc2)CCC1
inactive: [11] 108 % of control | [1] 100 % of control | [4] 96 % of control | [7] 105 % of control

O=NN(CCBr)C(=O)Nc1ccccc1
inactive: dose: 4.0 mg/kg/injection, schedule: Q04DX003 (ip), vehicle: Klucel (hydroxypropylcellulose) (HPC) 107 % of control | dose: 6.5 mg/kg/injection, schedule: Q04DX003 (ip), vehicle: Klucel (hydroxypropylcellulose) (HPC) 119 % of control
121 % of control and 211 % of control: dose: 100.0 mg/kg/injection, schedule: Q04DX003 (ip), vehicle: Klucel (hydroxypropylcellulose) (HPC)
active: dose: 11.0 mg/kg/injection, schedule: Q01DX009 (ip), vehicle: Klucel (hydroxypropylcellulose) (HPC) 150 % of control and 158 % of control | dose: 15.0 mg/kg/injection, schedule: Q04DX003 (ip), vehicle: Klucel (hydroxypropylcellulose) (HPC) 162 % of control | dose: 16.5 mg/kg/injection, schedule: Q01DX009 (ip), vehicle: Klucel (hydroxypropylcellulose) (HPC) 166 % of control | dose: 16.5 mg/kg/injection, schedule: Q01DX009 (ip), vehicle: saline with Tween-80 185 % of control | dose: 25.0 mg/kg/injection, schedule: Q01DX009 (ip), vehicle: Klucel (hydroxypropylcellulose) (HPC) 195 % of control and 215 % of control | [11] 200 % of control | dose: 29.0 mg/kg/injection, schedule: Q04DX003 (ip), vehicle: Klucel (hydroxypropylcellulose) (HPC) 154 % of control and 168 % of control | dose: 37.5 mg/kg/injection, schedule: Q01DX009 (ip), vehicle: Klucel (hydroxypropylcellulose) (HPC) 220 % of control | dose: 37.5 mg/kg/injection, schedule: Q01DX009 (ip), vehicle: saline with Tween-80 210 % of control | dose: 44.0 mg/kg/injection, schedule: Q04DX003 (ip), vehicle: Klucel (hydroxypropylcellulose) (HPC) 175 % of control and 181 % of control | dose: 67.0 mg/kg/injection, schedule: Q04DX003 (ip), vehicle: Klucel (hydroxypropylcellulose) (HPC) 167 % of control and 185 % of control and 204 % of control | dose: 150.0 mg/kg/injection, schedule: Q04DX003 (ip), vehicle: Klucel (hydroxypropylcellulose) (HPC) 175 % of control

Nc1cc(/C=C/c2ccc([N+](=O)[O-])cc2)nc2ccccc12
inactive: dose: 25.0 mg/kg/injection, schedule: Q04DX002 (ip), vehicle: saline with Tween-80 101 % of control | [1] 88 % of control | dose: 50.0 mg/kg/injection, schedule: Q04DX002 (ip), vehicle: saline with Tween-80 117 % of control | [2] 94 % of control | [3] 94 % of control | dose: 200.0 mg/kg/injection, schedule: Q04DX002 (ip), vehicle: saline with Tween-80 88 % of control

From PubChem BioAssay AID328 (DTP/NCI, 2004)
